# From patent publication US20110144045A1, “USE OF FUMAGILLIN AND THE DERIVATIVES THEREOF TO INCREASE THE BIOAVAILABILITY OF THE MACROCYCLIC LACTONES” (INSTITUT NATIONAL DE LA RECHERCHE AGRONOMIQUE, priority 2005, published 2011)
# Key:
# murine Pgp = murine Pgp (Mus musculus, UniProt P21447); assay: Intracellular accumulation of rhodamine 123 in Mdr1a-LLCPK1 cells (Pgp transport function); type: cell-based
# Procedure: (§1) They are cultured for 48 hours at 37° C. to reach confluence in 1 ml of medium without G418. The medium is eliminated and the cells washed with 0.5 ml PBS 1×. […] The cells are lysed by the addition of 0.3 ml PBS 1×/0.5% sodium dodecyl sulphate (50/50, v/v) in each well. After 10 minutes at ambient temperature, 0.3 ml PBS 1× is added to each well then the total lysate (0.6 ml) is transferred to a 2-ml plastic tube and stored at −20° C. until it is analyzed by spectrofluorometry.
# (§2) The results obtained were modelled according to the Hill model (Scientist software, Micromath research, Saint Louis, USA).
# murine Pgp (Mdr1a) = murine Pgp (Mdr1a) (Mus musculus, UniProt P21447); assay: as above; type: cell-based; details: mouse, probe rhodamine 123 (10 μM); Hill model; reached at 50 μM of fumagillin; read-out: maximum effect (Emax), Rho123 accumulation as percentage of the VSP effect
# Procedure: as §1, §2
# rat hepatocytes [1] = assay: Intracellular quantity of 14C moxidectin in primary-cultured rat hepatocytes +/- fumagillin; type: cell-based
# Procedure: The isolation and culturing of rat hepatocytes has been described previously (Dupuy et al., 2001b). The hepatocytes are distributed into culture dishes and kept at 37° C. for 12 hours (oven 5% CO2). The cells are cultured in the presence of 5 μM ^14C moxidectin (control) +/−100 μM fumagillin. After 0, 6, 24, 48 and 72 h the incubations are stopped (n=3 for each treatment), the media collected and the hepatocytes harvested by mechanical disassociation in phosphate buffer saline (PBS 1×). The media and the hepatocytes are stored at −20° C. until analysis by high-performance liquid chromatography (HPLC).
# ^14C moxidectin is quantified in the medium and the hepatocytes by a HPLC technique coupled with an in-line radioactivity detection (Dupuy et al., 2001b). This technique allows ^14C moxidectin and its main metabolite (C29 monohydroxyethyl moxidectin) in rat hepatocytes to be detected and quantified. The radioactivity is measured by liquid scintillation counting (Kontron Beta V counter). The total initial radioactivity of the initial medium at 5 μM ^14C moxidectin +/−100 μM fumagillin corresponds to the 100% value. Due to the concentration of moxidectin detected in the hepatocytes (ng.ml^−1) and to the initially introduced percentage of radioactivity, the time-concentration areas under the curve are calculated from the first to the last experimental point using the trapezoidal method (Gibaldi and Perrier, 1982).
# rat hepatocytes [2] = details: rat hepatocytes in primary culture; Dupuy et al., 2001b; 2003; cited from earlier work
# murine Pgp, sequence (P21447 whole entry): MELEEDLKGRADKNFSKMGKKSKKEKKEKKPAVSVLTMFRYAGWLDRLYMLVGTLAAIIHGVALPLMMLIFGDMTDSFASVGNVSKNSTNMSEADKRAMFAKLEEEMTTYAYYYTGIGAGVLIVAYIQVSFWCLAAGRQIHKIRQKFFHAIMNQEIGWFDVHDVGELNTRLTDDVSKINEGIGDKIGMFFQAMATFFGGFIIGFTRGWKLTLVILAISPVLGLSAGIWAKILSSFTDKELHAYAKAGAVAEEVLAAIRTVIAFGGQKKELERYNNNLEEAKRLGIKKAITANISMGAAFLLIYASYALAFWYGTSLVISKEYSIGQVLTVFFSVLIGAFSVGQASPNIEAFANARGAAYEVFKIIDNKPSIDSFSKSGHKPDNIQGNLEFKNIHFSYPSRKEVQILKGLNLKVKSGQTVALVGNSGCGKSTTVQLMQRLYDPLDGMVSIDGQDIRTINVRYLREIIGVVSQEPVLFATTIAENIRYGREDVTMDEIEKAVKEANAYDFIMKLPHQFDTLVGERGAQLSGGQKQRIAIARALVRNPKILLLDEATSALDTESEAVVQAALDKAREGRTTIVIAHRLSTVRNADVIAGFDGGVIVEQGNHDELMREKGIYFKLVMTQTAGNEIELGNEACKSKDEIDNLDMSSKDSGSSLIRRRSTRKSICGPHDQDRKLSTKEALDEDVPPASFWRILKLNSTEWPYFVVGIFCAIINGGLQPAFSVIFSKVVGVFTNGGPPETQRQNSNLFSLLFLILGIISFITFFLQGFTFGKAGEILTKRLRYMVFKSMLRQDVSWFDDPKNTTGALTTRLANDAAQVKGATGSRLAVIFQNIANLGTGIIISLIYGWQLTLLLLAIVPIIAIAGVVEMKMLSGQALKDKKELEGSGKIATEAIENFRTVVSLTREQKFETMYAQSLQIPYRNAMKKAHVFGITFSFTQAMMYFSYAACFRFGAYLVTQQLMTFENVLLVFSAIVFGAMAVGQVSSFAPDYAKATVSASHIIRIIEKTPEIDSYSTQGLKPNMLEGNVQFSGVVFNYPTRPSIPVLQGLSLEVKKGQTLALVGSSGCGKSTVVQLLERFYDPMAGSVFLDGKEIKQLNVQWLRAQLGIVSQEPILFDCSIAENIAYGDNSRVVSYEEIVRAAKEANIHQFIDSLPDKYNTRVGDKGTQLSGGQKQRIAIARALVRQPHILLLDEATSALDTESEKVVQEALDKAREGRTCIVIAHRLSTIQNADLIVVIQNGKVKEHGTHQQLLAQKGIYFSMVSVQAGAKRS
# murine Pgp (Mdr1a), sequence (P21447 whole entry): as above
compound,measurement,setting,value
CO[C@@H]1[C@H](OC(=O)/C=C/C=C/C=C/C=C/C(=O)O)CC[C@]2(CO2)[C@H]1[C@@]1(C)O[C@@H]1CC=C(C)C [fumagillin],EC50,"murine Pgp; Rho123 accumulation in Mdr1a-LLCPK1, Hill model, read-out: EC50, concentration necessary to reach 50% of the maximum effect",10 µM
same,effect on the quantity of intracellular Rho 123,murine Pgp; fumagillin 10 to 100 μM,increased
same,"Emax at 2 h, 50 μM",murine Pgp (Mdr1a),43.7%
same,increase of the quantity of moxidectin in the hepatocytes (time-concentration area under the curve),"rat hepatocytes [1]; 100 μM fumagillin with 5 μM 14C moxidectin, over a period of 72 h, versus moxidectin control",65%
O=c1c(O)c(-c2ccc(O)c(O)c2)oc2cc(O)cc(O)c12 [quercetin],effect on the quantity of 14C moxidectin in the hepatocytes of rats,rat hepatocytes [2],significantly increases
"CO/N=C1\C[C@]2(C[C@@H]3C[C@@H](C/C=C(\C)C[C@@H](C)/C=C/C=C4\CO[C@@H]5[C@H](O)C(C)=C[C@@H](C(=O)O3)[C@]45O)O2)O[C@H](/C(C)=C/C(C)C)[C@H]1C [Moxidectin, moxidectin]",time of maximum quantity of intracellular moxidectin,rat hepatocytes [1]; rat,6 h
same,quantity of 14C moxidectin in cultured rat hepatocytes,"rat hepatocytes [1]; rat, 0 h, 5 μM",4.5 ± 1.25
same,quantity of 14C moxidectin in cultured rat hepatocytes,"rat hepatocytes [1]; rat, 6 h, 5 μM",72.95 ± 9.98
same,main metabolite (C29 monohydroxyethyl) as share of the parent substance,"rat hepatocytes [1]; rat, 24 h, 5 μM",≤ 4%
same,quantity of 14C moxidectin in cultured rat hepatocytes,"rat hepatocytes [1]; rat, 24 h, 5 μM",52.60 ± 5.94
same,quantity of 14C moxidectin in cultured rat hepatocytes,"rat hepatocytes [1]; rat, 48 h, 5 μM",22.19 ± 4.00
same,quantity of 14C moxidectin in cultured rat hepatocytes,"rat hepatocytes [1]; rat, 72 h, 5 μM",11.98 ± 1.30
CC(=O)N1CCN(c2ccc(OCC3COC(Cn4ccnc4)(c4ccc(Cl)cc4Cl)O3)cc2)CC1 (stereo not drawn) [ketoconazole],effect on the quantity of 14C moxidectin in the hepatocytes of rats,rat hepatocytes [2],significantly increases
"C/C=C/C[C@@H](C)C(=O)[C@H]1C(=O)N[C@@H](C(C)C)C(=O)N(C)CC(=O)N(C)[C@@H](CC(C)C)C(=O)N[C@@H](C(C)C)C(=O)N(C)[C@@H](CC(C)C)C(=O)N[C@@H](C)C(=O)N[C@H](C)C(=O)N(C)[C@@H](CC(C)C)C(=O)N(C)[C@@H](CC(C)C)C(=O)N(C)[C@@H](C(C)C)C(=O)N1C [VSP, Valspodar]","Rho 123 accumulation, maximum value taken as reference","murine Pgp; VSP 10 μM, considered to be the maximum value by definition",100%
"CC[C@H](C)[C@H]1O[C@]2(CC[C@@H]1C)C[C@@H]1C[C@@H](C/C=C(\C)[C@@H](O[C@H]3C[C@H](OC)[C@@H](O[C@H]4C[C@H](OC)[C@@H](O)[C@H](C)O4)[C@H](C)O3)[C@@H](C)/C=C/C=C3\CO[C@@H]4[C@H](O)C(C)=C[C@@H](C(=O)O1)[C@]34O)O2 [IVM, ivermectin]",effect on Rho 123 accumulation relative to the effect of VSP,"murine Pgp; 5 μM IVM, Mdr1a-LLCPK1 cells, 2 h, 10 μM Rho123",95%
